Key:
full length human TREX1 = target: T1, full length human TREX1 (Homo sapiens, UniProt Q9NSU2); experiment: TREX1 Biochemical Assay (fluorescence, dsDNA substrate degradation); conditions: 150 pM TREX1, 60 nM dsDNA substrate, 25 minutes at room temperature
T1 construct: N-terminally His-Tev tagged full length human TREX1; made in house; host or cells: E. coli
T1 sequence (Q9NSU2 1-314): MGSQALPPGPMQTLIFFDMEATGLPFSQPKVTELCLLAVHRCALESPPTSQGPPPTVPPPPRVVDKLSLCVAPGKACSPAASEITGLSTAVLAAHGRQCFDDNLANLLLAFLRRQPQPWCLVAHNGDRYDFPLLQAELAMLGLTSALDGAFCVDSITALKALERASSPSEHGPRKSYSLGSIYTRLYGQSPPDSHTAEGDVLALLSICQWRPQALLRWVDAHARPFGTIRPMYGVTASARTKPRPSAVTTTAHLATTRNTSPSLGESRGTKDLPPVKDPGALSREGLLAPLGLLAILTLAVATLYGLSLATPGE
Experimental: Degradation of the dsDNA liberates free fluorophore to produce a fluorescent signal. Specifically, 7.5 μL of N-terminally His-Tev tagged full length human TREX1 (expressed in E. coli and purified in house) in reaction buffer (50 mM Tris (pH 7.4), 150 mM NaCl, 2 mM DTT, 0.1 mg/mL BSA, 0.01% (v/v) Tween-20 and 100 mM MgCl2) was added to a 384-well Black ProxiPlate Plus (Perkin Elmer) which already contained compound (150 nL) at varying concentrations as a 10 point dose-response in DMSO. To this was added 7.5 μL of dsDNA substrate (Strand A: 5′ TEX615/GCT AGG CAG 3′; Strand B: 5′ CTG CCT AGC/IAbRQSp (Integrated DNA Technologies)) in reaction buffer. Final concentrations were 150 pM TREX1, 60 nM dsDNA substrate in reaction buffer with 1.0% DMSO (v/v). After 25 minutes at room temperature, reactions were quenched by the addition of 5 μL of stop buffer (same as reaction buffer plus 200 mM EDTA). Final concentrations in the quenched reaction were 112.5 pM TREX1, 45 nM DNA and 50 mM EDTA in a volume of 20 μL. After a 5-minute incubation at room temperature, plates were read in a laser sourced Envision (Perkin-Elmer), measuring fluorescence at 615 nm following excitation w/570 nm light. IC50 values were calculated by comparing the measured fluorescence at 615 nm ratio relative to control wells pre-quenched w/stop buffer (100% inhibition) and no inhibitor (0% inhibition) controls as using non-linear least square four parameter fits and either Genedata or GraphPad Prism (GraphPad Software, Inc.).

[1] = target: T2, human TREX2 (residues M44-A279) (Homo sapiens, UniProt Q9BQ50); experiment: TREX2 Biochemical Assay (fluorescence, dsDNA substrate degradation); conditions: 2.5 nM TREX2, 60 nM dsDNA substrate, 25 minutes at room temperature
T2 construct: human TREX2 (residues M44-A279, expressed in E. coli); made in house; host or cells: E. coli
T2 sequence (Q9BQ50 44-279 isoform Q9BQ50-1): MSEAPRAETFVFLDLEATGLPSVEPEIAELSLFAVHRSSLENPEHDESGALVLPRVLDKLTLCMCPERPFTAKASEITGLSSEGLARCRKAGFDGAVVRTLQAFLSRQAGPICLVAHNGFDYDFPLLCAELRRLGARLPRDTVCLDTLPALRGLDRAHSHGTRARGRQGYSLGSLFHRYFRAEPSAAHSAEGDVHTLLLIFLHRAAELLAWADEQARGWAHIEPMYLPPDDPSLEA
Experimental: Degradation of the dsDNA liberates free fluorophore to produce a fluorescent signal. Specifically, 7.5 μL of N-terminally His-Tev tagged human TREX2 (residues M44-A279, expressed in E. coli and purified in house) in reaction buffer (50 mM Tris (pH 7.4), 150 mM NaCl, 2 mM DTT, 0.1 mg/mL BSA, 0.01% (v/v) Tween-20 and 100 mM MgCl2) was added to a 384-well Black ProxiPlate Plus (Perkin Elmer) which already contained compound (150 nL) at varying concentrations as a 10 point dose-response in DMSO. To this was added 7.5 μL of dsDNA substrate (Strand A: 5′ TEX615/GCT AGG CAG 3′; Strand B: 5′ CTG CCT AGC/IAbRQSp (IDT)) in reaction buffer. Final concentrations were 2.5 nM TREX2, 60 nM dsDNA substrate in reaction buffer with 1.0% DMSO (v/v). After 25 minutes at room temperature, reactions were quenched by the addition of 5 μL of stop buffer (same as reaction buffer plus 200 mM EDTA). Final concentrations in the quenched reaction mixture were […] TREX2, 45 nM DNA and 50 mM EDTA in a volume of 20 μL. After a 5-minute incubation at room temperature, plates were read in a laser sourced Envision (Perkin-Elmer), measuring fluorescence at 615 nm following excitation w/570 nm light. IC50 values were calculated by comparing the measured fluorescence at 615 nm ratio relative to control wells pre-quenched w/stop buffer (100% inhibition) and no inhibitor (0% inhibition) controls as using non-linear least square four parameter fits and either Genedata or GraphPad Prism (GraphPad Software, Inc.).

Row | SMILES | IC50 (full length human TREX1) [µM] | IC50 [1] [µM]
1 | CN(c1nc(C(=O)Nc2ccc(F)c(F)c2)c(O)c(=O)n1C)C(c1ccccc1)c1ccccc1 [Example 20, 2-(benzhydryl(methyl)amino)-N-(3,4-difluorophenyl)-5-hydroxy-1-methyl-6-oxo-1,6-dihydropyrimidine-4-carboxamide] | 0.1 to 1 | < 1
2 | CN(c1nc(C(=O)Nc2c(F)cccc2F)c(O)c(=O)n1C)C(c1ccccc1)c1ccccc1 [Example 19, 2-(benzhydryl(methyl)amino)-N-(2,6-difluorophenyl)-5-hydroxy-1-methyl-6-oxo-1,6-dihydropyrimidine-4-carboxamide] | 1 to 10 | 10 to 100
3 | CN(c1nc(C(=O)NC2COC2)c(O)c(=O)n1C)C(c1ccccc1)c1ccccc1 [Example 9, 2-(benzhydryl(methyl)amino)-5-hydroxy-1-methyl-N-(oxetan-3-yl)-6-oxo-1,6-dihydropyrimidine-4-carboxamide] | > 10 | 10 to 100
4 | CN(c1nc(C(=O)NCCC(F)(F)F)c(O)c(=O)n1C)C(c1ccccc1)c1ccccc1 [Example 13, 2-(benzhydryl(methyl)amino)-5-hydroxy-1-methyl-6-oxo-N-(3,3,3-trifluoropropyl)-1,6-dihydropyrimidine-4-carboxamide] | 0.1 to 1 | 10 to 100
5 | CN(c1nc(C(=O)Nc2cc(F)ccn2)c(O)c(=O)n1C)C(c1ccccc1)c1ccccc1 [Example 23, 2-(benzhydryl(methyl)amino)-N-(4-fluoropyridin-2-yl)-5-hydroxy-1-methyl-6-oxo-1,6-dihydropyrimidine-4-carboxamide] | 1 to 10 | 1 to 10
6 | CN(c1nc(C(=O)Nc2ccccc2)c(O)c(=O)n1C)C(c1ccccc1)c1ccccc1 [Example 15, 2-(benzhydryl(methyl)amino)-5-hydroxy-1-methyl-6-oxo-N-phenyl-1,6-dihydropyrimidine-4-carboxamide] | < 0.1 | < 1
7 | CN(c1nc(C(=O)NCC2CC2)c(O)c(=O)n1C)C(c1ccccc1)c1ccccc1 [Example 14, 2-(benzhydryl(methyl)amino)-N-(cyclopropylmethyl)-5-hydroxy-1-methyl-6-oxo-1,6-dihydropyrimidine-4-carboxamide] | 0.1 to 1 | 1 to 10
8 | CN(c1nc(C(=O)Nc2cccc(F)c2)c(O)c(=O)n1C)C(c1ccccc1)c1ccccc1 [Example 16, 2-(benzhydryl(methyl)amino)-N-(3-fluorophenyl)-5-hydroxy-1-methyl-6-oxo-1,6-dihydropyrimidine-4-carboxamide] | < 0.1 | < 1
9 | CN(c1nc(C(=O)NCC(F)(F)F)c(O)c(=O)n1C)C(c1ccccc1)c1ccccc1 [Example 1, 2-(benzhydryl(methyl)amino)-5-hydroxy-1-methyl-6-oxo-N-(2,2,2-trifluoroethyl)-1,6-dihydropyrimidine-4-carboxamide] | 1 to 10 | 10 to 100
10 | CNC(=O)c1nc(N(C)C(c2ccccc2)c2ccccc2)n(C)c(=O)c1O [Example 12, 2-(benzhydryl(methyl)amino)-5-hydroxy-N,1-dimethyl-6-oxo-1,6-dihydropyrimidine-4-carboxamide] | > 10 | 10 to 100
11 | CN(c1nc(C(=O)Nc2ccccc2F)c(O)c(=O)n1C)C(c1ccccc1)c1ccccc1 [Example 17, 2-(benzhydryl(methyl)amino)-N-(2-fluorophenyl)-5-hydroxy-1-methyl-6-oxo-1,6-dihydropyrimidine-4-carboxamide] | < 0.1 | < 1

More lines, now with the values ahead:

Row | IC50 (full length human TREX1) [µM] | IC50 [1] [µM] | SMILES
12 | < 0.1 | 1 to 10 | Cc1nocc1NC(=O)c1nc(N(C)C(c2ccccc2)c2ccccc2)n(C)c(=O)c1O [Example 32, 2-(benzhydryl(methyl)amino)-5-hydroxy-1-methyl-N-(3-methylisoxazol-4-yl)-6-oxo-1,6-dihydropyrimidine-4-carboxamide]
13 | 0.1 to 1 | < 1 | CN(c1nc(C(=O)Nc2ccc(F)cc2)c(O)c(=O)n1C)[C@@H](c1ccccc1)c1ccccc1Cl [Example 30, (S)-2-(((2-chlorophenyl)(phenyl)methyl)(methyl)amino)-N-(4-fluorophenyl)-5-hydroxy-1-methyl-6-oxo-1,6-dihydropyrimidine-4-carboxamide]
14 | > 10 | 10 to 100 | CN(c1nc(C(=O)Nc2cccc(C(F)(F)F)c2)c(O)c(=O)n1C)C(c1ccccc1)c1ccccc1 [Example 27, 2-(benzhydryl(methyl)amino)-5-hydroxy-1-methyl-6-oxo-N-(3-(trifluoromethyl)phenyl)-1,6-dihydropyrimidine-4-carboxamide]
15 | 1 to 10 | 10 to 100 | CN(c1nc(C(=O)Nc2ccnn2C)c(O)c(=O)n1C)C(c1ccccc1)c1ccccc1 [Example 35, 2-(benzhydryl(methyl)amino)-5-hydroxy-1-methyl-N-(1-methyl-1H-pyrazol-5-yl)-6-oxo-1,6-dihydropyrimidine-4-carboxamide]
16 | 0.1 to 1 | < 1 | CN(c1nc(C(=O)Nc2ccccn2)c(O)c(=O)n1C)C(c1ccccc1)c1ccccc1 [Example 25, 2-(benzhydryl(methyl)amino)-5-hydroxy-1-methyl-6-oxo-N-(pyridin-2-yl)-1,6-dihydropyrimidine-4-carboxamide]
17 | 0.1 to 1 | 1 to 10 | CN(c1nc(C(=O)Nc2cncs2)c(O)c(=O)n1C)C(c1ccccc1)c1ccccc1 [Example 31, 2-(benzhydryl(methyl)amino)-5-hydroxy-1-methyl-6-oxo-N-(thiazol-5-yl)-1,6-dihydropyrimidine-4-carboxamide]
18 | 0.1 to 1 | 1 to 10 | Cc1oncc1NC(=O)c1nc(N(C)C(c2ccccc2)c2ccccc2)n(C)c(=O)c1O [Example 36, 2-(benzhydryl(methyl)amino)-5-hydroxy-1-methyl-N-(5-methylisoxazol-4-yl)-6-oxo-1,6-dihydropyrimidine-4-carboxamide]
19 | 0.1 to 1 | < 1 | CN(c1nc(C(=O)Nc2ccc(F)cc2)c(O)c(=O)n1C)[C@H](c1ccccc1)c1ccccc1Cl (stereo in doubt) [Example 29, 2-(((2-chlorophenyl)(phenyl)methyl)(methyl)amino)-N-(4-fluorophenyl)-5-hydroxy-1-methyl-6-oxo-1,6-dihydropyrimidine-4-carboxamide]
20 | 0.1 to 1 | 1 to 10 | CN(c1nc(C(=O)Nc2cncc(F)c2)c(O)c(=O)n1C)C(c1ccccc1)c1ccccc1 [Example 24, 2-(benzhydryl(methyl)amino)-N-(5-fluoropyridin-3-yl)-5-hydroxy-1-methyl-6-oxo-1,6-dihydropyrimidine-4-carboxamide]
